The source of these data is patent publication US9309222B2, “Phenyl linked quinolinyl modulators of RORγt” (Janssen Pharmaceutica NV, priority 2012, dated 2016).

Assay [1] has as its system IL-17 production by CD4 T cells. Put plainly: Human Th17 assay (IL-17 production by CD4 T cells under Th17 differentiation conditions). It counts as cell-based. To be noted: IL-17 in supernatant after 3 days. As to the method:
The human Th17 assay tests the effect of RORγt modulatory compounds on IL-17 production by CD4 T cells under conditions which favor Th17 differentiation. Total CD4^+ T cells were isolated from the peripheral blood mononuclear cells (PBMC) of healthy donors using a CD4^+ T cell isolation kit II, following the manufacturer's instructions (Miltenyi Biotec). […] 50 μL of compound at titrated concentrations in DMSO were added into each well at final DMSO concentration at 0.2%. Cells were incubated for 1 hour, then 50 μL of Th17 cell differentiation medium was added to each well. The final concentrations of antibodies and cytokines (R&D Systems) in differentiation medium were: 3×10^6/mL anti-CD3/CD28 beads (prepared using human T cell activation/expansion kit, Miltenyi Biotec), 10 μg/mL anti-IL4, 10 μg/mL anti-IFNγ, 10 ng/mL IL113, 10 ng/mL IL23, 50 ng/mL IL6, 3 ng/mL TGFβ and 20 U/mL IL2. Cells were cultured at 37° C. and 5% CO2 for 3 days. Supernatants were collected and the accumulated IL-17 in culture was measured by using MULTI-SPOT® Cytokine Plate following manufacture's instruction (Meso Scale Discovery). The plate was read using Sector Imager 6000, and IL-17 concentration was extrapolated from the standard curve. The IC50s were determined by GraphPad.

Assay [2] deals with T1, human RORγt ligand binding domain (RORγt LBD) (Homo sapiens, UniProt P51449).
T1 construct: His-tag (N); TurboTEV protease cleavage site (ENLYFQG) (N); made in house; host or cells: E. coli (pHIS1, modified pET vector)
T1 sequence (P51449 with tags, fused parts or gaps): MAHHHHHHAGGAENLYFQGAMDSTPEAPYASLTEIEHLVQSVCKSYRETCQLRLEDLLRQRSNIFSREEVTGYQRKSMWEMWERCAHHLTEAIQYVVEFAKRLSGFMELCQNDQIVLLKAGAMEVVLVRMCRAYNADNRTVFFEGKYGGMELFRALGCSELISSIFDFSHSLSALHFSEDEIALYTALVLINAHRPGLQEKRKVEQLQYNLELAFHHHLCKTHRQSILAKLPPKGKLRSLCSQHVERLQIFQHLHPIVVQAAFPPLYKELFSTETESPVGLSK
In words: RORγt ThermoFluor assay (thermal shift, ligand binding affinity). As to conditions: estimated from concentration response of thermal shift. The method in brief:
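Thermal shift of 0.065 mg/mL RORγt with 60 μM 1,8-ANS in 100 mM Hepes pH 7.0, 10 mM NaCl, 2.5 mM GSH, 0.002% Tween-20. Compounds in 1:2 series from 10 mM DMSO stock. Dye fluorescence (500 nm emission) tracked versus temperature; ΔTm used to derive KD.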

For a further assay, the target named is T2, human RORγt LBD (Homo sapiens, UniProt P51449).
T2 construct: expressed in transfected cells
T2 sequence (P51449 258-518): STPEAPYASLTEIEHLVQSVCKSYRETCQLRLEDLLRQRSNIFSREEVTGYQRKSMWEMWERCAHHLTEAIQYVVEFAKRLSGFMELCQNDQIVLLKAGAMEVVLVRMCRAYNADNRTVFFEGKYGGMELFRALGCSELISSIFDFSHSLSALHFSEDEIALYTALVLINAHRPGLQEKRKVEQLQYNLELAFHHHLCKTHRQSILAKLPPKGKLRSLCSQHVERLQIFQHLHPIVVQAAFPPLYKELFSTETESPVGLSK
In words: RORγt reporter assay (GAL4-RORγt LBD luciferase in HEK293T cells). It counts as cell-based. As to conditions: for IC50 / RORγt reporter Assay, % inhibition @ 6 μM: HEK293T cells; for IC50: 24 hours compound treatment; for inhibition at 6 µM: HEK-293T, read-out: RORγt reporter Assay, % inhibition @ 6 μM, HEK293T cells, 6 μM compound; for RORγt reporter Assay, % inhibition @ 6 μM: 6 μM compound. The method in brief:
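Read-out is the firefly-to-renilla luciferase ratio versus compound concentration, after 24 h compound exposure of cells in phenol-red-free DMEM/5% lipid-reduced FCS. Cells were HEK293T bulk-transfected with a GAL4-responsive firefly reporter (pGL4.31) and GAL4 DBD–wild-type human RORγt LBD fusion (pBIND, renilla as transfection/viability control).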
(In general: In a reporter assay the amount or activity of a reporter protein is the signal.)

Values joined by “and” are separate entries in the source; they are usually repeats but may differ in a detail not shown here. Equal entries are not always repeated. Structures can show the parent of a compound that is named as a salt.

As a reminder, the IC50 is the concentration that inhibits the measured activity by half. Low readings indicate greater potency, high ones weaker potency. In turn, `Cn1cncc1C(O)(c1ccc(Cl)cc1)c1ccc2nc(Cl)c(-c3ccccc3)c(Cl)c2c1` (racemic) [Example 119a, (4-Chlorophenyl)(2,4-dichloro-3-phenylquinolin-6-yl)(1-methyl-1H-imidazol-5-yl)methanol] displayed an IC50 in assay [1] (Homo sapiens, CD4+ T, 72 h) of 1800 nM.
One may read the Kd as the constant that tells how readily two partners part at equilibrium. In general, inhibition refers to the share of the control response that was lost under treatment. Consider `Cn1cncc1C(O)(c1ccc(Cl)cc1)c1ccc2nc(Cl)c(-c3ccccc3Cl)c(Cl)c2c1` (racemic) [Example 153a, (4-Chlorophenyl)(2,4-dichloro-3-(2-chlorophenyl)quinolin-6-yl)(1-methyl-1H-imidazol-5-yl)methanol], for which the IC50 was 480 nM in assay [1] (Homo sapiens, CD4+ T, 72 h); around 700 nM in assay [1]; 230 nM and ~400 nM at human RORγt LBD. Further, the Kd in assay [2] was 71 nM. Moreover, the inhibition at 6 µM on human RORγt LBD was determined as 96%.
`CC(=O)N1CCC(C(O)(c2ccccc2)c2ccc3nc(C(F)(F)F)c(-c4ccccc4)c(C(F)(F)F)c3c2)CC1` (racemic) [Example 169a, 1-(4-(Hydroxy(phenyl)(3-phenyl-2,4-bis(trifluoromethyl)quinolin-6-yl)methyl)piperidin-1-yl)ethanone]: the half-maximal inhibitory concentration (IC50) stood at 66 nM in assay [1] (Homo sapiens, CD4+ T, 72 h) and 72 nM on human RORγt LBD. In addition, the Kd in assay [2] was 8.1 nM. The inhibition at 6 µM on human RORγt LBD was found to be 96%.
In the case of `Cn1cncc1C(O)(c1ccc(Cl)cc1)c1ccc2nc(Cl)c(-c3ccccc3)c(Cl)c2c1` (single isomer, unassigned) [Example 119b, (4-Chlorophenyl)(2,4-dichloro-3-phenylquinolin-6-yl)(1-methyl-1H-imidazol-5-yl)methanol], half-maximal inhibition in assay [1] (IC50) required 15000 nM.
Take `Cn1cncc1C(O)(c1ccc(Cl)cc1)c1ccc2nc(Cl)c(-c3ccccc3)c(Cl)c2c1` (single isomer, unassigned) [Example 119c, (4-Chlorophenyl)(2,4-dichloro-3-phenylquinolin-6-yl)(1-methyl-1H-imidazol-5-yl)methanol]: the midpoint of inhibition in assay [1] (Homo sapiens, CD4+ T, 72 h), the IC50, lay at 700 nM.
Take `Cn1cncc1C(O)(c1ccc(Cl)cc1)c1ccc2nc(Cl)c(-c3ccccc3Cl)c(Cl)c2c1` (single isomer, unassigned) [Example 153b, (4-Chlorophenyl)(2,4-dichloro-3-(2-chlorophenyl)quinolin-6-yl)(1-methyl-1H-imidazol-5-yl)methanol]: the IC50 was 1600 nM in assay [1] and 690 nM against human RORγt LBD. Besides, the Kd in assay [2] is 270 nM. Moreover, at human RORγt LBD, the “RORγt reporter Assay, % inhibition @ 6 μM” value is 93%.
For `Cn1cncc1C(O)(c1ccc(Cl)cc1)c1ccc2nc(Cl)c(-c3ccccc3Cl)c(Cl)c2c1` (single isomer, unassigned) [Example 153c, (4-Chlorophenyl)(2,4-dichloro-3-(2-chlorophenyl)quinolin-6-yl)(1-methyl-1H-imidazol-5-yl)methanol], in that order: 250 nM, 140 nM, 19 nM and 96%.
Take `CC(=O)N1CCC(C(O)(c2ccccc2)c2ccc3nc(C(F)(F)F)c(-c4ccccc4)c(C(F)(F)F)c3c2)CC1` (single isomer, unassigned) [Example 169b, 1-(4-(Hydroxy(phenyl)(3-phenyl-2,4-bis(trifluoromethyl)quinolin-6-yl)methyl)piperidin-1-yl)ethanone]: the IC50 in assay [1] is 27 nM. Further, the equilibrium dissociation constant (Kd) in assay [2] was 3 nM. Also, at human RORγt LBD, the IC50 is 3.8 nM and the inhibition at 6 µM turned out to be 94%.
On to `CC(=O)N1CCC(C(O)(c2ccccc2)c2ccc3nc(C(F)(F)F)c(-c4ccccc4)c(C(F)(F)F)c3c2)CC1` (single isomer, unassigned) [Example 169c, 1-(4-(Hydroxy(phenyl)(3-phenyl-2,4-bis(trifluoromethyl)quinolin-6-yl)methyl)piperidin-1-yl)ethanone], for which the IC50 is 110 nM in assay [1] and 100 nM on human RORγt LBD. In addition, in assay [2], the Kd was 52 nM. The “RORγt reporter Assay, % inhibition @ 6 μM” value at human RORγt LBD was found to be 96%.
In turn, `Cn1cncc1C(O)(c1ccc(C(F)(F)F)nc1)c1ccc2nc(C(F)(F)F)c(-c3ccccc3)c(C#N)c2c1` (single isomer, unassigned) [Example 173c, 6-(Hydroxy(1-methyl-1H-imidazol-5-yl)(6-(trifluoromethyl)pyridin-3-yl)methyl)-3-phenyl-2-(trifluoromethyl)quinoline-4-carbonitrile] came in with an IC50 in assay [1] (Homo sapiens, CD4+ T, 72 h) of 130 nM. For the same compound, the “RORγt reporter Assay, % inhibition @ 6 μM” value on human RORγt LBD was 95%.
As to `OC(c1ccccc1)(c1cccnc1)c1ccc2nc(Cl)c(-c3ccccc3)c(Cl)c2c1` (centres unmarked) [Example 2, (2,4-Dichloro-3-phenylquinolin-6-yl)(phenyl)(pyridin-3-yl)methanol], the IC50 in assay [1] (Homo sapiens, CD4+ T, 72 h) was 620 nM; in assay [1], around 700 nM.
In assay [1] (Homo sapiens, CD4+ T, 72 h), `Cn1cncc1C(O)(c1ccncc1)c1ccc2nc(Cl)c(-c3ccccc3)c(Cl)c2c1` (centres unmarked) [Example 16, (2,4-Dichloro-3-phenylquinolin-6-yl)(1-methyl-1H-imidazol-5-yl)(pyridin-4-yl)methanol] yielded a half-maximal inhibitory concentration (IC50) of 130 nM.
In assay [1] (Homo sapiens, CD4+ T, 72 h), `CN(C)c1nc2ccc(C(O)(c3ccncc3)c3cncn3C)cc2c(Cl)c1-c1ccccc1` (centres unmarked) [Example 48a, (4-Chloro-2-(dimethylamino)-3-phenylquinolin-6-yl)(1-methyl-1H-imidazol-5-yl)pyridin-4-ylmethanol•TFA] yielded an IC50 of 19 nM.
The compound `Cn1cncc1C(O)(c1cccnc1)c1ccc2nc(Cl)c(-c3ccccc3)c(Cl)c2c1` (centres unmarked) [Example 49, (2,4-Dichloro-3-phenylquinolin-6-yl)(1-methyl-1H-imidazol-5-yl)(pyridin-3-yl)methanol] had an IC50 in assay [1] (Homo sapiens, CD4+ T, 72 h) of 410 nM.
With `Cc1cc(C(O)(c2ccc3nc(Cl)c(-c4ccccc4)c(Cl)c3c2)c2cncn2C)ccn1` (centres unmarked) [Example 67, (2,4-Dichloro-3-phenylquinolin-6-yl)(1-methyl-1H-imidazol-5-yl)(2-methylpyridin-4-yl)methanol•TFA], the IC50 in assay [1] (Homo sapiens, CD4+ T, 72 h) is 27 nM.
The same measure, in the same setting: in the case of `Cn1cncc1C(O)(c1ccnc(F)c1)c1ccc2nc(Cl)c(-c3ccccc3)c(Cl)c2c1` (centres unmarked) [Example 86, (2,4-Dichloro-3-phenylquinolin-6-yl)(2-fluoropyridin-4-yl)(1-methyl-1H-imidazol-5-yl)methanol•TFA] it was 37 nM; in that of `Cc1nc(C)c(C(O)(c2ccc3nc(Cl)c(-c4ccccc4)c(Cl)c3c2)c2cncn2C)s1` (centres unmarked) [Example 143, (2,4-Dichloro-3-phenylquinolin-6-yl)(2,4-dimethylthiazol-5-yl)(1-methyl-1H-imidazol-5-yl)methanol], 20 nM.
`CCN1CCC(C(O)(c2ccccc2)c2ccc3nc(C(F)(F)F)c(-c4ccccc4)c(C(F)(F)F)c3c2)CC1` (centres unmarked) [Example 168, (1-Ethylpiperidin-4-yl)(phenyl)(3-phenyl-2,4-bis(trifluoromethyl)quinolin-6-yl)methanol•TFA]: in assay [2], the Kd is 3300 nM. For the same compound, at human RORγt LBD, the IC50 is around 6000 nM and the inhibition at 6 µM was found to be 71%.
For `Cn1cncc1C(O)(c1ccc(C(F)(F)F)nc1)c1ccc2nc(C(F)(F)F)c(-c3ccccc3)c(Cl)c2c1` (centres unmarked) [Example 172, (4-Chloro-3-phenyl-2-(trifluoromethyl)quinolin-6-yl)(1-methyl-1H-imidazol-5-yl)(6-(trifluoromethyl)pyridin-3-yl)methanol•TFA], the Kd in assay [2] is 4.6 nM. On human RORγt LBD, the IC50 amounted to 140 nM and the inhibition at 6 µM was determined as 96%.
